Holding throughout (type): functional
Test [1] concerns Escherichia coli. Put plainly: Bactericidal activity against Escherichia coli ATCC 35210 by microdilution method.
Test [2] relates to Escherichia coli. Put plainly: Antibacterial activity against Escherichia coli ATCC 35210 by microdilution method.
Test [3] relates to Pseudomonas aeruginosa. The test can be described thus: Antibiofilm activity against Pseudomonas aeruginosa PAO1 assessed as inhibition of biofilm formation at 0.125 times MIC incubated for 24 hrs by crystal violet staining based ELISA method.
The test system of test [4] is Listeria monocytogenes. The test can be described thus: Bactericidal activity against Listeria monocytogenes NCTC 7973 by microdilution method.
Test [5] concerns Pseudomonas aeruginosa. Put plainly: Antibiofilm activity against Pseudomonas aeruginosa PAO1 assessed as inhibition of biofilm formation at 0.5 times MIC incubated for 24 hrs by crystal violet staining based ELISA method.
Test [6] relates to Listeria monocytogenes. Put plainly: Antibacterial activity against Listeria monocytogenes NCTC 7973 by microdilution method.
In test [7] the test system is Pseudomonas aeruginosa. Put plainly: Antibiofilm activity against Pseudomonas aeruginosa PAO1 assessed as inhibition of biofilm formation at 0.25 times MIC incubated for 24 hrs by crystal violet staining based ELISA method.
The test system of test [8] is Pseudomonas aeruginosa. The test can be described thus: Bactericidal activity against Pseudomonas aeruginosa ATCC 27853 by microdilution method.
In test [9] the test system is Micrococcus flavus. The test can be described thus: Bactericidal activity against Micrococcus flavus ATCC 10240 by microdilution method.
The subject of test [10] is Micrococcus flavus. Put plainly: Antibacterial activity against Micrococcus flavus ATCC 10240 by microdilution method.
The subject of test [11] is Pseudomonas aeruginosa. Put plainly: Antibacterial activity against Pseudomonas aeruginosa ATCC 27853 by microdilution method.

In brackets after ≈: the same amount, converted by molar mass. Activity calls are given as the source filed them. The rule behind the calls is not given here.

With `COc1cc(/C=C/C(=O)OC[C@@]2(O)CO[C@@H](O[C@H]3[C@@H](Oc4c(-c5ccc(O)c(O)c5)oc5cc(O)c(OC)c(O)c5c4=O)O[C@H](CO)[C@@H](O)[C@@H]3O)[C@@H]2O)ccc1O`, the MBC was 623 µM (≈ 500 µg/mL) in test [1], 1250 µM (≈ 1000 µg/mL) in [4], 623 µM (≈ 500 µg/mL) in test [8] and 623 µM (≈ 500 µg/mL) in test [9]. For the same compound, the MIC in test [2] amounted to 499 µM (≈ 400 µg/mL); in [6], 935 µM (≈ 751 µg/mL); in test [10], 312 µM (≈ 250 µg/mL); in test [11], 312 µM (≈ 250 µg/mL). Besides, in test [3], the inhibition result was “inactive”. The results for the “inhibition (INH)” value in test [5] and in test [7] were 20.1% and 4.3%, respectively.

On to `CC1(C)[C@@H](O[C@H]2OC[C@H](O)[C@H](O)[C@H]2O[C@H]2O[C@H](CO)[C@@H](O)[C@H](O)[C@H]2OS(=O)(=O)O)CC[C@]2(C)[C@H]3CC=C4[C@@H]5C[C@@](C)(CO)CC[C@]5(C(=O)O[C@H]5O[C@H](CO)[C@@H](O)[C@H](O)[C@H]5O)CC[C@@]4(C)[C@]3(C)CC[C@@H]12`, for which the “inhibition (INH)” value in [3] was 12.5%; in test [5], 26.5%; in [7], 21.9%. For the same compound, the MBC in [8] came to 744 µM (≈ 751 µg/mL). Moreover, the MIC in test [11] amounted to 496 µM (≈ 501 µg/mL).

On to `COc1cc(/C=C/C(=O)O[C@H]2[C@H](O[C@H]3[C@@H](Oc4c(-c5ccc(O)c(O)c5)oc5cc(O)c(OC)c(O)c5c4=O)O[C@H](CO)[C@@H](O)[C@@H]3O)O[C@@H](C(=O)O)[C@@H](O)[C@@H]2O)ccc1O`, for which the MBC in test [1] stood at 1180 µM (≈ 1000 µg/mL); in test [4], 1180 µM (≈ 1000 µg/mL); in test [8], 473 µM (≈ 400 µg/mL); in test [9], 473 µM (≈ 400 µg/mL). The minimum inhibitory concentration (MIC) in test [2] was determined as 591 µM (≈ 500 µg/mL); in [6] it was 886 µM (≈ 751 µg/mL); in test [10], 296 µM (≈ 250 µg/mL); in test [11] it was 296 µM (≈ 250 µg/mL). In addition, the “inhibition (INH)” value in test [3] is on record as 1.8%; in [5], 43%; in test [7] it was 26.2%.

On to `COc1c(O)cc2oc(-c3ccc(O)c(O)c3)c(O[C@H]3O[C@H](CO)[C@@H](O)[C@H](O)[C@H]3O[C@@H]3OC[C@](O)(CO)[C@H]3O)c(=O)c2c1O`, for which the MBC stood at 639 µM (≈ 400 µg/mL) in [1], 1200 µM (≈ 751 µg/mL) in test [4], 639 µM (≈ 400 µg/mL) in [8] and 639 µM (≈ 400 µg/mL) in [9]. Further, the MIC in test [2] amounted to 399 µM (≈ 250 µg/mL); in [6] it was 639 µM (≈ 400 µg/mL); in test [10], 399 µM (≈ 250 µg/mL); in test [11], 399 µM (≈ 250 µg/mL). Further, the inhibition entry in [3] was “inactive”. In addition, the results for the “inhibition (INH)” value in [5] and in test [7] were 58.1% and 12.2%, respectively.

For the compound `CC1(C)[C@@H](O[C@H]2OC[C@H](O)[C@H](O)[C@H]2O[C@H]2O[C@H](CO)[C@@H](O)[C@H](O)[C@H]2OS(=O)(=O)O)CC[C@]2(C)[C@H]3CC=C4[C@@H]5C[C@@](C)(C=O)CC[C@]5(C(=O)O[C@H]5O[C@H](CO)[C@@H](O)[C@H](O)[C@H]5O)CC[C@@]4(C)[C@]3(C)CC[C@@H]12`, the MBC in test [1] was determined as 596 µM (≈ 601 µg/mL); in test [4], 2490 µM (≈ 2500 µg/mL); in test [8], 1190 µM (≈ 1200 µg/mL); in [9] it was 1190 µM (≈ 1200 µg/mL). The MIC in test [2] is 497 µM (≈ 501 µg/mL); in test [6], 1990 µM (≈ 2000 µg/mL); in [10], 596 µM (≈ 601 µg/mL); in test [11] it was 994 µM (≈ 1000 µg/mL). Further, the “inhibition (INH)” value in [3] is given as 7.2%; in [5] it was 56.6%; in [7], 45.9%.

Regarding `CN[C@@H]1[C@H](O[C@H]2[C@H](O[C@H]3[C@H](O)[C@@H](O)[C@H](N=C(N)N)[C@@H](O)[C@@H]3N=C(N)N)O[C@@H](C)[C@]2(O)C=O)O[C@@H](CO)[C@H](O)[C@H]1O` [STREPTOMYCIN], the MBC in test [1], in test [4], in test [8] and in test [9] was 516 µM (≈ 300 µg/mL) each time. Besides, the MIC in test [2], in test [6], in test [10] and in [11] was 344 µM (≈ 200 µg/mL) each time. For the same compound, the entries for the “inhibition (INH)” value in [3], in test [5] and in test [7] were 89.3%, 52.5% and 74.6%, respectively.

For `CC1(C)S[C@@H]2[C@H](NC(=O)[C@H](N)c3ccccc3)C(=O)N2[C@H]1C(=O)O` [AMPICILLIN], the MBC in [1] was 1430 µM (≈ 501 µg/mL); in test [4], 1430 µM (≈ 501 µg/mL); in test [8], 3580 µM (≈ 1250 µg/mL); in test [9], 1150 µM (≈ 400 µg/mL). Also, the MIC in test [2] stood at 716 µM (≈ 250 µg/mL); in test [6], 1150 µM (≈ 400 µg/mL); in test [10] it was 716 µM (≈ 250 µg/mL); in test [11], 2150 µM (≈ 751 µg/mL). In addition, the “inhibition (INH)” value is 85.2% in test [3], 65.3% in test [5] and 58.9% in test [7].

Turning to `CC1(C)[C@@H](O[C@H]2OC[C@H](O)[C@H](O)[C@H]2O[C@H]2O[C@H](CO)[C@@H](O)[C@H](O)[C@H]2O[C@H]2O[C@H](CO)[C@@H](O)[C@H](O)[C@H]2O)CC[C@]2(C)[C@H]3CC=C4[C@@H]5C[C@@](C)(C=O)CC[C@]5(C(=O)O[C@H]5O[C@H](CO)[C@@H](O)[C@H](O)[C@H]5O)CC[C@@]4(C)[C@]3(C)CC[C@@H]12`, the minimal bactericidal concentration (MBC) in test [1] was 1380 µM (≈ 1500 µg/mL); in test [4], 1840 µM (≈ 2000 µg/mL); in [8] it was 1380 µM (≈ 1500 µg/mL); in [9] it was 1380 µM (≈ 1500 µg/mL). Besides, the MIC in [2] was 919 µM (≈ 1000 µg/mL); in test [6], 1150 µM (≈ 1250 µg/mL); in test [10], 919 µM (≈ 1000 µg/mL); in test [11], 689 µM (≈ 751 µg/mL). Further, the inhibition entry in test [3] was “inactive”. For the same compound, the figures for the “inhibition (INH)” value in test [5] and in [7] were 53.4% and 39.4%, respectively.

These data come from ChEMBL document CHEMBL4392886, “Antibacterial and Antibiofilm Activity of Flavonoid and Saponin Derivatives from Atriplex tatarica against Pseudomonas aeruginosa” (2019).
